Laboratory results taken from US20090156404A1, “Methods and Compositions for Reducing Stress in Plants” (CROP MICROCLIMATE MANAGEMENT, INC., priority 2007, published 2009).

Key:
Type in all cases: in vivo, tomato
[1] = system: tomatoes (var. Marglobe); assay: Freeze event, greenhouse grown tomatoes sprayed with composition (Example 1); settings: exposures to −3.3° C
From the text: Unadapted plants in trays were sprayed with a composition comprised of a particulate material and a plant growth regulating compound mixed with water. The composition was applied using a backpack sprayer in a factorial trial design. The particulate material used was kaolin, applied at 25 and 50 kg/ha. […] Two plant growth regulating compounds, methyl salicylate and sodium salicylate, were each mixed individually with the kaolin. In addition to combinations of kaolin and each of the plant growth regulating compounds, the experiment included applying kaolin alone and each of the plant growth regulating compounds alone, each mixed with water. The concentrations of each of the plant growth regulating compounds in the composition were 1×10^−4M and 1×10^−5M.

[2] = system: tomatoes (var. Marglobe); assay: Growth chamber induced temperature/light stress in tomatoes (Example 2); settings: for Chlorosis (%): after five days, 4 to 42° C
Method: In this example, a growth chamber was used to induce stress in plants. Tomatoes (var. Marglobe) were greenhouse grown, then adapted in the growth chamber for two days at a constant 20° C. and the highest light intensity produced by the growth chamber. The temperature was then programmed for a multi-step diurnal variation between about 4 and about 42° C. The plants were treated with a composition comprised of a particulate material and a plant growth regulating compound mixed with water. The particulate material used was Kaolin, applied at 25 and 50 kg/ha. […] The plant growth regulating compound was sodium salicylate, which was applied at 1×10^−4M and 1×10^−5M in the composition. In addition to combinations of kaolin and the plant growth regulating compound, the experiment included applying kaolin alone and the plant growth regulating compound alone, each mixed with water.

[3] = system: Field-grown tomatoes (var. Better Boy); assay: Field trial without irrigation, weekly treatments (Example 3)
From the text: Treatment consisted of a composition comprised of a particulate material and a plant growth regulating compound mixed with water. The particulate material was kaolin, applied at 25 and 50 kg/ha. […] The plant growth regulating compound was sodium salicylate, which was applied at a concentration of 1×10^−5M in the composition. In addition to combinations of kaolin and the plant growth regulating compound, the experiment included applying kaolin alone and the plant growth regulating compound alone, each mixed with water. The trial was conducted in a grower field of sandy soil in Wake County, N.C. under grower conditions. The conditions were considered to be severe, as there was no irrigation and rainfall was insufficient during the trial. Treatments were applied at weekly intervals. The trial was a randomized complete block design with three replications.

[4] = system: early season tomatoes (var. Mountain Spring); assay: Irrigated field trial, flower abortion (Example 4); settings: 1 × 10^−5M
From the text: In addition to combinations of kaolin and the plant growth regulating compound, the experiment included applying kaolin alone and the plant growth regulating compound alone, each mixed with water.

[5] = system: Potted tomatoes; assay: Chill stress of potted tomatoes under field conditions (Example 5); settings: particulate 0 kg/ha, rating 10 completely healthy, 0 dead
From the text: Potted tomatoes under field conditions were subjected to cold temperatures in Australia in September-October 2007. […] The plants were sprayed with a composition comprised of particulate material and a plant growth regulating compound mixed with water. The particulate material used was kaolin, applied at 25 and 50 kg/ha. […] Two plant growth regulating compounds, sodium salicylate and benzyl acetate, were each mixed individually with the kaolin. The concentration of each plant growth regulating compound in the composition was 1×10^−5M. In addition to combinations of kaolin and each of the plant growth regulating compounds, the experiment included applying kaolin alone and sodium salicylate alone each mixed with water. The vigor and health of the plants were evaluated during the period of the trial.

For `O=C([O-])c1ccccc1O.[Na+]` [Na Salicylate, sodium salicylate], the “Mortality (%)” value ([1]; 1 × 10^−4M) was 83%, the “Mortality (%)” value ([1]; 1 × 10^−5M) was 6.3% and the “Growth (cm)” value ([2]; 1 × 10^−4M) was 1.9 cm. For the same molecule, the “Chlorosis (%)” value ([2]; 1 × 10^−4M) was 7.5%, the “Growth (cm)” value ([2]; 1 × 10^−5M) was 1.9 cm and the “Chlorosis (%)” value ([2]; 1 × 10^−5M) was 8.8%. The “# flower clusters/plant” value ([3]; Rating 1, 1 × 10^−5M) was 2.61, the “# Fruit > 2 cm” value ([3]; Rating 2, 1 × 10^−5M) was 1.05 and the “# flower clusters/plant” value ([3]; Rating 2, 1 × 10^−5M) was 3.78. The “# Mature blossoms” value ([3]; Rating 3, 1 × 10^−5M) was 2.89, the “# clusters/plant” value ([3]; Rating 3, 1 × 10^−5M) was 0.75 and the “Fruit > 1 cm” value ([3]; Rating 3, 1 × 10^−5M) was 1.46. For the same molecule, the “stress protection (in words)” value ([3]; plant growth, flowering, fruit clusters per plant, no irrigation) was “values intermediate between the untreated plants and the plants treated with both”, the “# Aborted Flowers/Plant” value ([4]; Rating 1) was 20.75 and the “# Aborted Flowers/Plant” value ([4]; Rating 2) was 3.94. The “Plant Vigor/Health” value ([5]; 7/10/2007, growth compound 0.8 g/ha) was 7.7 a, the “Plant Vigor/Health” value ([5]; 7/10/2007, growth compound 1.6 g/ha) was 7.3 a and the “Plant Vigor/Health” value ([5]; 12/9/2007, growth compound 0.8 g/ha) was 10 a. For the same molecule, the “Plant Vigor/Health” value ([5]; 12/9/2007, growth compound 1.6 g/ha) was 10 a, the “Plant Vigor/Health” value ([5]; 26/09/2007, growth compound 0.8 g/ha) was 6.5 ab and the “Plant Vigor/Health” value ([5]; 26/09/2007, growth compound 1.6 g/ha) was 6.5 ab.
`COC(=O)c1ccccc1O` [Me Salicylate, methyl salicylate] was tested, and the “Mortality (%)” value ([1]; 1 × 10^−4M) was 0% and the “Mortality (%)” value ([1]; 1 × 10^−5M) was 20%.
